Measurements as given in patent US7811819B2, “Cryopreservation of primate embryonic stem cells” (The University of Washington, priority 2005, dated 2010).

Columns and labels:
H1 hESC [1] = assay: Survival of hESC after slow, controlled-rate freezing and thaw (colony number and colony size relative to untreated control); type: cell-based, human; conditions: sucrose on thaw (cryoprotectant removal); concentration not given
Method: (§1) hESC culture. H1 hESC from passage 51 to 57 (WiCell, Madison, Wis., USA) were cultured in Knockout™ DMEM supplemented with GlutaMAX™ (2 mM), sodium pyruvate (1.0 mM), non-essential amino acids (0.1 mM), penicillin (50 u/ml), streptomycin (50 u/ml), Knockout™ serum replacer (15%) (all from Invitrogen, Carlsbad, Calif., USA) and β-mercaptoethanol (0.1 mM; Sigma, St. Louis, Mo., USA). hESC were grown on gelatinized tissue culture plates seeded with primary mouse embryonic fibroblasts that had been exposed to 3000 Rads γ-irradiation. To passage, cells were washed once with calcium and magnesium free phosphate buffered saline (PBS; Invitrogen, Carlsbad, Calif., USA) and then exposed to 1.2 u/ml dispase (Invitrogen, Carlsbad, Calif., USA) dissolved in PBS supplemented with 10% FBS until colonies began to lift from the plate. The cell layer was washed off the plate and mechanically dispersed using a plugged 9-inch Pasteur pipette or a 5 ml pipette. At this point, cells were divided into tubes for each group. The cells were then pelleted through centrifugation at 1200 rpm for 3 minutes, washed and pelleted again in culture medium (described above). […]
(§2) Calculation of Survival. Survival was calculated as combined colony number and colony size relative to Group 1, which was set at 100% survival. The horizontal diameters of 10 colonies were measured. […]

H1 hESC [2] = assay: Toxicity of the DMSO cryoprotectant to hESC without freezing (Group 2 vs control Group 1); type: cell-based, human; conditions: DMSO 10% in freezing medium, straws held 20 minutes at room temperature, not frozen; Group 1 vs. 2; cells grown three days
Method: as §1, §2

| Structure (SMILES) | effect on survival following thaw (H1 hESC [1]) | toxicity to the hESC (H1 hESC [2]) |
| --- | --- | --- |
| OC[C@H]1O[C@@](CO)(O[C@H]2O[C@H](CO)[C@@H](O)[C@H](O)[C@H]2O)[C@@H](O)[C@@H]1O [Sucrose] | harmful to survival | – |
| C[S+](C)[O-] [DMSO] | – | does not appear toxic |
